According to the supplement of paper PMC5844555:

Columns and labels:
Assay in all cases: 3' UTR reporter interaction score (median-centred robust z-score of log2 firefly/Renilla activity); higher = less repression of the 3' UTR reporter
Details in all cases: HEK293T; 48 h
[1] = test system: BRCA2
In short: (§1)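 Firefly and Renilla luciferase activities were read 48 h post-transfection in HEK293T cells (10,000/well, 96-well plates). The cells had received 100 ng firefly luc2P reporter bearing the gene's 3' UTR, 20 ng Renilla pRL-TK control and 2.5 pmol miRNA mimic via DharmaFECT Duo. The interaction score, where more negative means interaction, is a per-plate robust z-score (median, median absolute deviation) of the log firefly/Renilla ratio, median-centred per miRNA and averaged over at least two independent screens.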

[2] = test system: EZH2
In short: as §1

[3] = test system: FBXW7
In short: as §1

[4] = test system: HRAS
In short: as §1

[5] = test system: MYB
In short: as §1

[6] = test system: MYCN
In short: as §1

[7] = test system: MYC
In short: as §1

[8] = test system: MYT1L
In short: as §1

[9] = test system: NOTCH1
In short: as §1

[10] = test system: PHF6
In short: as §1

[11] = test system: PHOX2B
In short: as §1

[12] = test system: RB1
In short: as §1

[13] = test system: TP53
In short: as §1

[14] = test system: ZEB2
In short: as §1

Row | Sequence | 3' UTR reporter interaction score [1] | 3' UTR reporter interaction score [2] | 3' UTR reporter interaction score [3] | 3' UTR reporter interaction score [4] | 3' UTR reporter interaction score [5] | 3' UTR reporter interaction score [6] | 3' UTR reporter interaction score [7] | 3' UTR reporter interaction score [8] | 3' UTR reporter interaction score [9] | 3' UTR reporter interaction score [10] | 3' UTR reporter interaction score [11] | 3' UTR reporter interaction score [12] | 3' UTR reporter interaction score [13] | 3' UTR reporter interaction score [14]
1 | UAAGUGCUUCCAUGUUUUGGUGA | -0.208 | -0.457 | 0.567 | -0.478 | -1.01 | 0.317 | -0.0521 | -1.44 | 1.18 | 0.733 | 0.453 | 1.03 | -0.0784 | 1.55
2 | UAAUACUGCCGGGUAAUGAUGG | -0.155 | 0.453 | -0.707 | -0.939 | -1.24 | -0.263 | 0.778 | 1.25 | -0.992 | 0.321 | -0.44 | 0.254 | 0.205 | -2.81
3 | UAAUACUGUCUGGUAAAACCGU | -0.165 | 0.716 | -1.04 | 0.264 | -2.29 | 0.575 | 0.8 | 0.747 | -1.39 | 0.422 | -0.137 | 0.612 | 0.0543 | -6.85
4 | UAAUCUCAGCUGGCAACUGUG | 1.06 | -0.0854 | -0.0147 | 0.474 | -0.952 | 0.412 | 0.197 | -0.796 | -0.148 | 0.579 | 0.207 | -0.947 | -0.775 | 0.502
5 | UAAUGCCCCUAAAAAUCCUUAU | 1.14 | 0.868 | 1.16 | -0.275 | -1.05 | -0.732 | 0.136 | 0.18 | -0.347 | 2.31 | 0.54 | -0.537 | -0.124 | -2.81
6 | UACAGUACUGUGAUAACUGAAG | 0.0293 | -3.4 | -3.92 | 0.843 | 0.694 | -3.49 | 0.128 | 0.686 | -1.33 | -0.261 | 0.00398 | 0.982 | -0.59 | -0.268
7 | UACAGUAGUCUGCACAUUGGUU | 0.551 | -0.827 | 0.408 | -0.926 | -0.118 | 0.292 | 0.385 | 3.26 | -0.605 | -0.669 | -0.571 | 2 | -1.16 | 1.83
8 | UACAGUAUAGAUGAUGUACUAG | -0.483 | 0.0925 | -1.17 | -0.991 | 1.2 | -0.388 | -0.27 | 0.926 | 0.141 | 0.845 | 1.45 | 0.00103 | 0.564 | 0.857
9 | UACCCAUUGCAUAUCGGAGUUG | 1.65 | -0.072 | 1.03 | 0.189 | -1.15 | -0.434 | 1.45 | -2.74 | 0.783 | -2.43 | -0.552 | 0.632 | 0.729 | -2.65
10 | UACCCUGUAGAACCGAAUUUGU | 0.189 | 1.07 | -0.174 | 0.849 | 0.245 | -0.116 | 0.546 | -2.07 | -1.66 | 0.333 | -0.86 | -0.148 | -0.546 | -1.8
11 | UACCCUGUAGAUCCGAAUUUGUG | 0.0748 | 1.17 | -0.445 | 1.04 | 0.0301 | -0.296 | 0.449 | -2.08 | -2.62 | -0.356 | -1.36 | 0.397 | -0.88 | -1.18
12 | UACUGCAUCAGGAACUGAUUGGAU | -0.471 | -1.49 | 0.0205 | 0.0273 | -0.822 | 0.685 | 0.358 | 1.06 | 0.0506 | -2.18 | 0.00207 | 1.24 | -0.963 | -0.414
13 | UAGAUAAAAUAUUGGUACCUG | 0.0137 | 0.412 | 0.354 | 0.836 | -0.19 | 0.037 | 0.271 | -0.105 | -0.186 | -0.242 | -1.45 | -0.00826 | 0.578 | -0.296
14 | UAGCACCAUCUGAAAUCGGUU | 0.502 | 0.717 | -3.02 | 0.469 | 0.702 | -3.08 | 0.338 | -0.146 | 0.229 | -0.0911 | -0.351 | -0.626 | -0.0665 | -0.458
15 | UAGCACCAUUUGAAAUCAGUGUU | 0.947 | 0.729 | -3.34 | -0.0949 | 0.253 | -3.52 | 0.295 | 0.287 | 0.166 | 0.425 | -1.1 | -0.25 | -0.394 | 0.0122
16 | UAGCACCAUUUGAAAUCGGU | 0.875 | 0.53 | -2.01 | 0.156 | 0.262 | -3.2 | 0.499 | -0.0531 | 0.946 | -0.281 | -0.0846 | -0.0587 | -0.108 | -0.664
17 | UAGCAGCACAGAAAUAUUGGC | -0.194 | -0.914 | -1.49 | -1.27 | -2.7 | -0.51 | -0.447 | -1.5 | -0.212 | 1.22 | 0.776 | 0.887 | 0.439 | 2.12
18 | UAGCAGCACAUCAUGGUUUACA | -0.138 | -0.225 | -2.93 | -0.34 | -1.34 | 0.0626 | 0.39 | -3.09 | -0.541 | 0.453 | 0.488 | 0.792 | -0.579 | 2.82
19 | UAGCAGCACGUAAAUAUUGGCG | -0.0822 | 0.0745 | -0.915 | -0.0204 | 0.8 | 0.0935 | 0.946 | -0.142 | -0.0927 | -0.551 | -0.629 | -0.115 | -0.054 | 0.217
